Reference: patent US12186310B2, “Antibody-drug conjugate” (DAIICHI SANKYO COMPANY, LIMITED, priority 2012, dated 2025)
Like-named read-outs stand apart in the source and are kept apart here.

Legend:
A375 cells = experiment: Cytotoxicity test (8) of released drug; format: cell-based; details: Homo sapiens, A-375, 144 h, read-out: IC50, cytotoxic activity against the A375 cells
Procedure: A375 cells (ATCC) were cultured in DMEM (GIBCO) containing 10% fetal bovine serum (MOREGATE) (hereinafter, referred to as a medium). The A375 cells were prepared to have a concentration of 4×10^4 cells/mL by using a medium, added at a concentration of 25 μL/well to a 96-well microplate for cell culture (CORNING) charged with […] of a medium, and cultured overnight. On the next day, each test substance diluted into 1000 nM, 200 nM, 40 nM, 8 nM, 1.6 nM, 0.32 nM, and 0.064 nM by using DMSO was added at a concentration of 0.5 μL/well to the microplate. DMSO was added at a concentration of 0.5 μL/well to test substance non-supplemented wells. The volume of the medium in each well was adjusted to 100 μL by the addition of 10 μL/well of a medium, and the cells were cultured under 5% CO2 at 37° C. for 6 days. After the culture, the microplate was taken out from the incubator and left standing at room temperature for 30 minutes. The culture solution was charged with an equal amount of CellTiter-Glo Luminescent Cell Viability Assay (Promega) and stirred. After the microplate was left standing at room temperature for 10 minutes, the amount of light emission was measured by using a plate reader. The IC50 value was calculated according to the following equation: IC50(nM)=antilog((50−d)×(LOG10b−LOG10a)/(d−c)+LOG10b) • a: Concentration a of the test substance • b: Concentration b of the test substance • c: Ratio of live cells supplemented with the test substance having the concentration a • d: Ratio of live cells supplemented with the test substance having the concentration b
The concentrations a and b establish the relation a>b crossing 50% ratio of live cells.
The survival rate of cells was calculated according to the following equation: Survival rate of cells (%)=a/b×100 • a: Average amount of light emission from the test substance-supplemented wells (n=2) • b: Average amount of light emission from the test substance non-supplemented wells (n=10)

human tumor = human tumor subcutaneously transplanted mouse model; cited from earlier work
various cancer cells = details: against various cancer cells; cited from earlier work
topoisomerase I = target: T1, topoisomerase I (Homo sapiens, UniProt P11387); details: compared with SN-38 and topotecan; cited from earlier work
T1 sequence (P11387 1-765): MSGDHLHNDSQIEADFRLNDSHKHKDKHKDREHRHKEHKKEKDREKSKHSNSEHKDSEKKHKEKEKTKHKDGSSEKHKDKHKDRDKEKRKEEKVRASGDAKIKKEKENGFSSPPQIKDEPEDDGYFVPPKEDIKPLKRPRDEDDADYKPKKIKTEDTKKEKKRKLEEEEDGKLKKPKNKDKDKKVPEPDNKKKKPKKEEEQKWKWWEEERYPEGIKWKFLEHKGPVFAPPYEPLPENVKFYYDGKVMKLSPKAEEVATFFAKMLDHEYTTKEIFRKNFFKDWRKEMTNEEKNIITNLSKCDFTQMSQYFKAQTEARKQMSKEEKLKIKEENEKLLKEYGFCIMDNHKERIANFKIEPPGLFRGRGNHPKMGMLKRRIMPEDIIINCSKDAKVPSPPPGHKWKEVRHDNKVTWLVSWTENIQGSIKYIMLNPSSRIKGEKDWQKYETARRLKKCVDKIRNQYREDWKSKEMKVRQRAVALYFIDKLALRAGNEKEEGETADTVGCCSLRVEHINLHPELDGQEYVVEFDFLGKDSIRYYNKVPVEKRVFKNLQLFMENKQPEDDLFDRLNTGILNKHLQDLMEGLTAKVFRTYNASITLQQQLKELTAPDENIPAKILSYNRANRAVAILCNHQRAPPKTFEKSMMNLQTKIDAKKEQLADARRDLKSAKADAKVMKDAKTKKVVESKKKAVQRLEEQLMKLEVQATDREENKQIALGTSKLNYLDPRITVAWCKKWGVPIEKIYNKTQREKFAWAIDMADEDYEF

[1] = Self-degradation of released drug derivative with aminal structure; format: physicochemical; details: undergoes a self-degradation to release HO—CH2—C(═O)—(NH-DX)
[2] = system: Human melanoma line A375 cells; experiment: Antitumor test (1), subcutaneously transplanted A375; format: in vivo, mouse; details: A375 subcutaneous, female nude mice; 10 mg/kg intravenously at Days 11, 18, and 25; FIG. 17
Procedure: Mouse: 5- to 6-week-old female BALB/c nude mice (Charles River Laboratories Japan, Inc.) were acclimatized for 4 to 7 days under SPF conditions before use in the experiment. The mice were fed with sterilized solid feed (FR-2, Funabashi Farms Co., Ltd) and given sterilized tap water (prepared by the addition of 5 to 15 ppm sodium hypochlorite solution). Assay and calculation expression: In all studies, the major axis and minor axis of tumor were measured twice a week by using an electronic digital caliper (CD-15C, Mitutoyo Corp.), and the tumor volume (mm^3) was calculated. The calculation expression is as shown below. Tumor volume (mm^3)=1⁄2×Major axis (mm)×[Minor axis (mm)]^2 All of the antibody-drug conjugates were diluted with physiological saline (Otsuka Pharmaceutical Factory, Inc.) and used at a volume of 10 mL/kg for intravenous administration to the tail of each mouse. Human melanoma line A375 cells were purchased from ATCC (American Type Culture Collection). 8×10^6 cells suspended in physiological saline were subcutaneously transplanted to the right abdomen of each female nude mouse (Day 0), and the mice were randomly grouped at Day 11.

[3] = system: Human non-small cell lung cancer line Calu-6 cells; experiment: Antitumor test (3), subcutaneously transplanted Calu-6; format: in vivo, mouse; details: Calu-6 subcutaneous, female nude mice; 10 mg/kg intravenously at Days 11, 18, and 25 (qw×3); FIG. 19
Procedure: Assay and calculation expression: In all studies, the major axis and minor axis of tumor were measured twice a week by using an electronic digital caliper (CD-15C, Mitutoyo Corp.), and the tumor volume (mm^3) was calculated. The calculation expression is as shown below. Tumor volume (mm^3)=½×Major axis (mm)×[Minor axis (mm)]^2
Human non-small cell lung cancer line Calu-6 cells were purchased from ATCC (American Type Culture Collection). 5×10^6 cells suspended in physiological saline were subcutaneously transplanted to the right abdomen of each female nude mouse (Day 0), and the mice were randomly grouped at Day 11.

## CC[C@@]1(O)C(=O)OCc2c1cc1n(c2=O)Cc2c-1nc1cc(F)c(C)c3c1c2[C@@H](NC(=O)COCCN)CC3 [Example (42), 2-(2-Aminoethoxy)-N-[(1S,9S)-9-ethyl-5-fluoro-9-hydroxy-4-methyl-10,13-dioxo-2,3,9,10,13,15-hexahydro-1H,12H-benzo[de]pyrano[3′,4′:6,7]indolizino[1,2-b]quinolin-1-yl]acetamide]
A375 cells
  IC50: 1 to 10 nM

## CC[C@@]1(O)C(=O)OCc2c1cc1n(c2=O)Cc2c-1nc1cc(F)c(C)c3c1c2[C@@H](NC(=O)CCCN)CC3 [Example (1), 4-Amino-N-[(1S,9S)-9-ethyl-5-fluoro-9-hydroxy-4-methyl-10,13-dioxo-2,3,9,10,13,15-hexahydro-1H,12H-benzo[de]pyrano[3′,4′:6,7]indolizino[1,2-b]quinolin-1-yl]butanamide]
A375 cells
  IC50: 10 to 100 nM

## CC[C@@]1(O)C(=O)OCc2c1cc1n(c2=O)Cc2c-1nc1cc(F)c(C)c3c1c2[C@@H](N)CC3 [exatecan, (1S,9S)-1-amino-9-ethyl-5-fluoro-2,3-dihydro-9-hydroxy-4-methyl-1H,12H-benzo[de]pyrano[3′,4′:6,7]indolizino[1,2-b]quinolin-10,13(9H,15H)-dione]
Human tumor
  antitumor effect: potent antitumor effect
A375 cells; released drug, cultured 6 days, CellTiter-Glo
  IC50: 0.1 to 1 nM
Various cancer cells
  in vitro cytocidal activity: higher in vitro cytocidal activity
Topoisomerase I
  inhibitory activity on topoisomerase I: higher than SN-38

## CC[C@@]1(O)C(=O)OCc2c1cc1n(c2=O)Cc2c-1nc1cc(F)c(C)c3c1c2[C@@H](NC(=O)CO)CC3 [Example (75), N-[(1S,9S)-9-ethyl-5-fluoro-9-hydroxy-4-methyl-10,13-dioxo-2,3,9,10,13,15-hexahydro-1H,12H-benzo[de]pyrano[3′,4′:6,7]indolizino[1,2-b]quinolin-1-yl]-2-hydroxyacetamide]
A375 cells
  IC50: 0.1 to 1 nM

## CCC1(O)C(=O)OCc2c1cc1n(c2=O)Cc2c-1nc1cc(F)c(C)c3c1c2C(NC(=O)COCN)CC3 (stereo not shown) [NH2—CH2—O—CH2—C(═O)—(NH-DX)]
[1]
  stability of the aminal structure in the molecule: unstable

B1: M30-H1-L4P antibody: M30-H1-L4 antibody with the modification of a glycan regulated by defucosylation (antibody, chains of the INN, looked up, V domains shown)
VH: QVQLVQSGAEVKKPGSSVKVSCKASGYTFTNYVMHWVRQAPGQGLEWMGYINPYNDDVKYNEKFKGRVTITADESTSTAYMELSSLRSEDTAVYYCARWGYYGSPLYYFDYWGQGTLVTVSS
VL: EIVLTQSPATLSLSPGERATLSCRASSRLIYMHWYQQKPGQAPRPLIYATSNLASGIPARFSGSGSGTDFTLTISSLEPEDFAVYYCQQWNSNPPTFGQGTKVEIK
modifications: defucosylated
notes: M30-H1-L4 antibody with the modification of a glycan regulated by defucosylation
[2]
  tumor volume: progression of tumor growth
[3]
  tumor volume: progression of tumor growth
